Patent US20060276464A1, “Diarylsulfone sulfonamides and use thereof” (Wyeth, priority 2005, published 2006)
pIC50: −log10 of the molar value. Values joined by “and” are separate entries in the source; they are usually repeats but may differ in a detail not shown here. Equal values may be shown once. Read-outs that look alike come from different tables or passages of the source.

Columns and labels:
[1] = molecular target: T1, SFRP-1 (Homo sapiens, UniProt Q8N474); experiment: Fluorescence polarization binding assay (competitive displacement of a probe compound from SFRP-1); details: fluorescence anisotropy, 45 nM SFRP-1, 20 nM probe;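 further: test compound competes with a fluorescent probe held by SFRP-1, seen as a drop in probe anisotropy after incubation in darkness, with anisotropy as function of rising compound dose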
T1 sequence (Q8N474 32-314): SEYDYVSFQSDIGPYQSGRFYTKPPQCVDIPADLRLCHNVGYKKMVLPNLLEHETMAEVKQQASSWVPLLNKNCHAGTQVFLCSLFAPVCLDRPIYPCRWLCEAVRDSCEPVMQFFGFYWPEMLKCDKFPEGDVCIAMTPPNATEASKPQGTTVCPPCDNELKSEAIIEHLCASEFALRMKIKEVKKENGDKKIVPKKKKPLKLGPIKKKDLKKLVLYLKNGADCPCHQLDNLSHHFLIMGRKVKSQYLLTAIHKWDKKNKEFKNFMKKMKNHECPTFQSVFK

[2] = molecular target: T1, SFRP-1; experiment: Cell-based assay for in vitro measurement of SFRP-1/SARP2 antagonist activity (U2OS cells co-transfected with 16x TCF-tk-Luciferase reporter, Wnt and hSFRP-1); details: U2OS;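 further: U2OS cells co-transfected with a TCF-tk luciferase reporter, a Wnt vector, hSFRP-1 or empty vector and CMV-βgal, luciferase luminescence read in cell lysates alongside βgal activity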
[3] = read-out: Fold Induction with SFRP-1, Conc 15 μM, with SFRP-1, fold induction over SFRP-1 control, single dose
[4] = read-out: Fold Induction without SFRP-1, Conc 15 μM, without SFRP-1, single dose
[5] = read-out: Fold Induction with SFRP-1, Conc 15 μM, single dose, luciferase reporter, fold induction over SFRP-1 control, cells with SFRP-1
[6] = read-out: Fold Induction without SFRP-1, Conc 15 μM, single dose, luciferase reporter, cells without SFRP-1 (specificity control)

Row | pIC50 [1] | fold induction at 15 µM [2, 3] | fold induction at 15 µM [2, 4] | fold induction at 15 µM [2, 5] | fold induction at 15 µM [2, 6] | Compound
1 | 5.85 | 2 | 1 |  |  | Cc1ccc(S(=O)(=O)c2ccccc2)cc1S(=O)(=O)NC1CCN(C(=O)c2ccc(C#N)cc2)CC1 [Example 476, N-[1-(4-cyanobenzoyl)piperidin-4-yl]-2-methyl-5-(phenylsulfonyl)benzenesulfonamide]
2 | 5.66 | 2.1 | 1 |  |  | Cc1ccc(S(=O)(=O)c2ccccc2)cc1S(=O)(=O)NC1CCN(C(=O)c2cccc(C#N)c2)CC1 [Example 477, N-[1-(3-cyanobenzoyl)piperidin-4-yl]-2-methyl-5-(phenylsulfonyl)benzenesulfonamide]
3 | 5.89 | 2.3 | 1 |  |  | Cc1ccc(S(=O)(=O)c2ccccc2)cc1S(=O)(=O)NC1CCN(S(C)(=O)=O)CC1 [Example 478, 2-methyl-N-[1-(methylsulfonyl)piperidin-4-yl]-5-(phenylsulfonyl)benzenesulfonamide]
4 | 5.54 | 1.7 | 1 |  |  | CC(=O)Nc1ccc(C(=O)N2CCC(NS(=O)(=O)c3cc(S(=O)(=O)c4ccccc4)ccc3C)CC2)cc1 [Example 480, N-(4-{[4-({[2-methyl-5-(phenylsulfonyl)phenyl]sulfonyl}amino)piperidin-1-yl]carbonyl}phenyl)acetamide]
5 | 5.92 | 1.8 | 1 |  |  | Cc1ccc(S(=O)(=O)c2ccccc2)cc1S(=O)(=O)NC1CCN(S(=O)(=O)c2cn(C)cn2)CC1 [Example 481, 2-methyl-N-{1-[(1-methyl-1H-imidazol-4-yl)sulfonyl]piperidin-4-yl}-5-(phenylsulfonyl)benzenesulfonamide]
6 | 6.10 | 3.2 | 1.1 |  |  | Cc1ccc(S(=O)(=O)c2ccccc2)cc1S(=O)(=O)NC1CCN(S(=O)(=O)c2cccs2)CC1 [Example 482, 2-methyl-5-(phenylsulfonyl)-N-[1-(2-thienylsulfonyl)piperidin-4-yl]benzenesulfonamide]
7 | 5.82 | 2.4 | 1.1 |  |  | Cc1ccc(S(=O)(=O)c2ccccc2)cc1S(=O)(=O)NC1CCN(C(=O)c2ccc3c(c2)OCO3)CC1 [Example 484, N-[1-(1,3-benzodioxol-5-ylcarbonyl)piperidin-4-yl]-2-methyl-5-(phenylsulfonyl)benzenesulfonamide]
8 | 5.77 |  |  | 2.5 | 1 | Cc1ccc(S(=O)(=O)c2ccccc2)cc1S(=O)(=O)NC1CCN(C(=O)c2ccno2)CC1 [Example 485, N-[1-(isoxazol-5-ylcarbonyl)piperidin-4-yl]-2-methyl-5-(phenylsulfonyl)benzenesulfonamide]
9 | 5.30 |  |  | 2.1 | 1.1 | Cc1ccc(S(=O)(=O)c2ccccc2)cc1S(=O)(=O)NC1CCN(C(=O)CN(C)C)CC1 [Example 486, N-[1-(N,N-dimethylglycyl)piperidin-4-yl]-2-methyl-5-(phenylsulfonyl)benzenesulfonamide]
10 | 6.30 |  |  | 2.1 | 1.1 | C#CCOC(=O)N1CCC(NS(=O)(=O)c2cc(S(=O)(=O)c3ccccc3)ccc2C)CC1 [Example 487, prop-2-yn-1-yl 4-({[2-methyl-5-(phenylsulfonyl)phenyl]sulfonyl}amino)piperidine-1-carboxylate]
11 | 5.68 |  |  | 2 | 0.9 | COC(=O)N1CCC(NS(=O)(=O)c2cc(S(=O)(=O)c3ccccc3)ccc2C)CC1 [Example 488, methyl 4-({[2-methyl-5-(phenylsulfonyl)phenyl]sulfonyl}amino)piperidine-1-carboxylate]
12 | 6.00 |  |  | 2.4 | 1.1 | COc1ccccc1OC(=O)N1CCC(NS(=O)(=O)c2cc(S(=O)(=O)c3ccccc3)ccc2C)CC1 [Example 489, 2-methoxyphenyl 4-({[2-methyl-5-(phenylsulfonyl)phenyl]sulfonyl}amino)piperidine-1-carboxylate]
13 | 5.64 |  |  | 1.7 | 1 | Cc1ccc(S(=O)(=O)c2ccccc2)cc1S(=O)(=O)NC1CCN(C(=O)NC(C)(C)C)CC1 [Example 490, N-(tert-butyl)-4-({[2-methyl-5-(phenylsulfonyl)phenyl]sulfonyl}amino)piperidine-1-carboxamide]
14 | 5.85 |  |  | 1.9 | 1 | Cc1ccc(S(=O)(=O)c2ccccc2)cc1S(=O)(=O)NC1CCN(C(=O)c2ccc3ccccc3c2)CC1 [Example 496, 2-methyl-N-[1-(2-naphthoyl)piperidin-4-yl]-5-(phenylsulfonyl)benzenesulfonamide]
15 | 5.89 and 5.77 |  |  | 2.4 | 1 | Cc1ccc(S(=O)(=O)c2ccccc2)cc1S(=O)(=O)NC1CCN(C(=O)c2cccs2)CC1 [Example 497, 2-methyl-5-(phenylsulfonyl)-N-[1-(2-thienylcarbonyl)piperidin-4-yl]benzenesulfonamide]
16 | 5.66 |  |  | 1.8 | 1 | Cc1ccc(S(=O)(=O)c2ccccc2)cc1S(=O)(=O)NC1CCN(C(=O)OCC(C)C)CC1 [Example 498, isobutyl 4-({[2-methyl-5-(phenylsulfonyl)phenyl]sulfonyl}amino)piperidine-1-carboxylate]
17 | 6.05 |  |  | 2.4 | 1 | Cc1ccc(S(=O)(=O)c2ccccc2)cc1S(=O)(=O)NC1CCN(C(=O)c2ccc(N(C)C)cc2)CC1 [Example 499, N-{1-[4-(dimethylamino)benzoyl]piperidin-4-yl}-2-methyl-5-(phenylsulfonyl)benzenesulfonamide]
18 | 5.40 |  |  | 2.5 | 0.9 | CCNC(=O)N1CCC(NS(=O)(=O)c2cc(S(=O)(=O)c3ccccc3)ccc2C)CC1 [Example 501, N-ethyl-4-({[2-methyl-5-(phenylsulfonyl)phenyl]sulfonyl}amino)piperidine-1-carboxamide]
19 | 5.52 |  |  | 2.9 | 1 | Cc1ccc(S(=O)(=O)c2ccccc2)cc1S(=O)(=O)NC1CCN(C(=O)N2CCOCC2)CC1 [Example 502, 2-methyl-N-[1-(morpholin-4-ylcarbonyl)piperidin-4-yl]-5-(phenylsulfonyl)benzenesulfonamide]
20 | 5.62 |  |  | 2.7 | 0.9 | Cc1ccc(S(=O)(=O)c2ccccc2)cc1S(=O)(=O)NC1CCN(C(=O)N(C)C)CC1 [Example 503, N,N-dimethyl-4-({[2-methyl-5-(phenylsulfonyl)phenyl]sulfonyl}amino)piperidine-1-carboxamide]
21 | 5.40 |  |  | 2.2 | 1 | Cc1ccc(S(=O)(=O)c2ccccc2)cc1S(=O)(=O)NC1CCN(C(=O)CC(C)(C)C)CC1 [Example 504, N-[1-(3,3-dimethylbutanoyl)piperidin-4-yl]-2-methyl-5-(phenylsulfonyl)benzenesulfonamide]
22 | 6.15 |  |  | 2.3 | 1 | CC(C)c1ccc(S(=O)(=O)c2cc(Cl)cc(Cl)c2)cc1S(=O)(=O)NCCc1ccccn1 [Example 505, 5-[(3,5-dichlorophenyl)sulfonyl]-2-isopropyl-N-(2-pyridin-2-ylethyl)benzenesulfonamide]
23 | 5.62 |  |  | 2.7 | 1 | CC(C)c1ccc(S(=O)(=O)c2cccc(OC(F)(F)F)c2)cc1S(=O)(=O)NCCc1ccccn1 [Example 506, 2-isopropyl-N-(2-pyridin-2-ylethyl)-5-{[3-(trifluoromethoxy)phenyl]sulfonyl}benzenesulfonamide]
24 | 6.30 |  |  | 2.7 | 0.9 | CC(C)c1ccc(S(=O)(=O)c2ccc(N(C)C)cc2)cc1S(=O)(=O)NCCc1ccccn1 [Example 507, 5-{[4-(dimethylamino)phenyl]sulfonyl}-2-isopropyl-N-(2-pyridin-2-ylethyl)benzenesulfonamide]
25 | 5.89 |  |  | 2.3 | 0.9 | CC(C)c1ccc(S(=O)(=O)c2cccc(C(F)(F)F)c2)cc1S(=O)(=O)NCCc1ccccn1 [Example 508, 2-isopropyl-N-(2-pyridin-2-ylethyl)-5-{[3-(trifluoromethyl)phenyl]sulfonyl}benzenesulfonamide]
26 | 5.92 |  |  | 1.9 | 1 | COc1ccc(Cl)cc1S(=O)(=O)c1ccc(C(C)C)c(S(=O)(=O)NCCc2ccccn2)c1 [Example 509, 5-[(5-chloro-2-methoxyphenyl)sulfonyl]-2-isopropyl-N-(2-pyridin-2-ylethyl)benzenesulfonamide]
27 | 6.05 |  |  | 1.9 | 1.1 | CC(C)c1ccc(S(=O)(=O)c2cccc3cccnc23)cc1S(=O)(=O)NCCc1ccccn1 [Example 510, 2-isopropyl-N-(2-pyridin-2-ylethyl)-5-(quinolin-8-ylsulfonyl)benzenesulfonamide]
